In series [1] the target is T1, Acetylcholinesterase (Electrophorus electricus, UniProt O42275). Nature of the series: Competitive inhibition of electric eel AChE using acetylthiocholine iodide as substrate preincubated for 20 mins followed by substrate addition measured every 1 min for 30 mins by Dixon plot method.
The target of series [2] is T1, Acetylcholinesterase. Nature of the series: Uncompetitive inhibition of electric eel AChE using acetylthiocholine iodide as substrate preincubated for 20 mins followed by substrate addition measured every 1 min for 30 mins by Cornish-Bowden plot method.
Series [3] deals with T2, Cholinesterase (Equus caballus, UniProt P81908). Nature of the series: Competitive inhibition of equine serum BChE using butyrylthiocholine iodide as substrate preincubated for 20 mins followed by substrate addition measured every 1 min for 30 mins by Dixon plot method.
T2 sequence (P81908 whole entry): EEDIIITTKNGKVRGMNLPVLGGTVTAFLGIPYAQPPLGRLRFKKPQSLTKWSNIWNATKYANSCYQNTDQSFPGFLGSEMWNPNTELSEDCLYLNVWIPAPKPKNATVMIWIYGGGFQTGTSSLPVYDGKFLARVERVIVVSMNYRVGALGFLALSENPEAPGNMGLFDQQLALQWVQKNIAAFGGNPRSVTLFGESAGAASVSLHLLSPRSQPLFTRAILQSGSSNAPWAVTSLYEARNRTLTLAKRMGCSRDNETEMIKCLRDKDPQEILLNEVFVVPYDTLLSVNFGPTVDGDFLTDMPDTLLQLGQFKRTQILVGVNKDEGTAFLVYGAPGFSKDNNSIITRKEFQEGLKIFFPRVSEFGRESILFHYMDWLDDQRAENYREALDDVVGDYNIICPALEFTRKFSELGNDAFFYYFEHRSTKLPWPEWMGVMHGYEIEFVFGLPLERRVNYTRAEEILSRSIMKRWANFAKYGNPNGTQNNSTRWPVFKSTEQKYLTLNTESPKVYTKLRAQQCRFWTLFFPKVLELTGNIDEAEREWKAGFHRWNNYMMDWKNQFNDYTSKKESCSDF
Series [4] deals with T2, Cholinesterase. Nature of the series: Uncompetitive inhibition of equine serum BChE using butyrylthiocholine iodide as substrate preincubated for 20 mins followed by substrate addition measured every 1 min for 30 mins by Cornish-Bowden plot method.
Series [5] in a line: Selectivity ratio of Ki for electric eel AChE to Ki for equine serum BChE.
The nature of series [6]: Selectivity ratio of Ki for equine serum BChE to Ki for electric eel AChE.
Series [7] can be described thus: Chemical stability in TRIS buffer at pH 8 measured over 2880 mins by HPLC method. The series is classed as physicochemical. The note with it: pH 8, 48 h.
Series [8] is described as follows: Chemical stability in TRIS buffer at pH 8 measured over 2880 mins in presence of BChE by HPLC method. The series is classed as physicochemical. As to conditions: pH 8, 48 h.
In series [9] the target is Acetylcholinesterase (Homo sapiens, UniProt P22303). Nature of the series: Inhibition of […] using acetyl-(beta-methyl)thiocholine as substrate preincubated for 30 mins followed by substrate addition measured after 25 mins by spectrophotometric method.
Sequence of Acetylcholinesterase (Homo sapiens, UniProt P22303) (P22303 whole entry): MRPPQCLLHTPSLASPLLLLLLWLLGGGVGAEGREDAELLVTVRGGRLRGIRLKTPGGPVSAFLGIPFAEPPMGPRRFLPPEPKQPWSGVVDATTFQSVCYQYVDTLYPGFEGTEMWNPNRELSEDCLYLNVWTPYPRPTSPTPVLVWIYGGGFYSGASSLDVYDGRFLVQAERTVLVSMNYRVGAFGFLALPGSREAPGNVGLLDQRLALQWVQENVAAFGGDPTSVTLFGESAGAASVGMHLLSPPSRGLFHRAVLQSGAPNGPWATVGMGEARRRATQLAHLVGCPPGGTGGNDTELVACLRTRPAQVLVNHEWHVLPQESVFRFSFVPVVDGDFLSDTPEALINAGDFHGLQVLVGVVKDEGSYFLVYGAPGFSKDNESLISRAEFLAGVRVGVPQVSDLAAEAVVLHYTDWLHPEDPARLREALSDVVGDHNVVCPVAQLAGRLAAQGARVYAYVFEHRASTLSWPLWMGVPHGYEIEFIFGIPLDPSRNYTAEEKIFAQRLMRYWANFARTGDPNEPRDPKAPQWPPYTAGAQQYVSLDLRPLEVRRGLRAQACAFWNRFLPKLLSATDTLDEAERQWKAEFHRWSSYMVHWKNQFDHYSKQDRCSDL
In series [10] the target is T3, Cholinesterase (Homo sapiens, UniProt P06276). Nature of the series: Inhibition of […] using S-butyrylthiocholine as substrate preincubated for 30 mins followed by substrate addition measured after 25 mins by spectrophotometric method.
T3 sequence (P06276 whole entry): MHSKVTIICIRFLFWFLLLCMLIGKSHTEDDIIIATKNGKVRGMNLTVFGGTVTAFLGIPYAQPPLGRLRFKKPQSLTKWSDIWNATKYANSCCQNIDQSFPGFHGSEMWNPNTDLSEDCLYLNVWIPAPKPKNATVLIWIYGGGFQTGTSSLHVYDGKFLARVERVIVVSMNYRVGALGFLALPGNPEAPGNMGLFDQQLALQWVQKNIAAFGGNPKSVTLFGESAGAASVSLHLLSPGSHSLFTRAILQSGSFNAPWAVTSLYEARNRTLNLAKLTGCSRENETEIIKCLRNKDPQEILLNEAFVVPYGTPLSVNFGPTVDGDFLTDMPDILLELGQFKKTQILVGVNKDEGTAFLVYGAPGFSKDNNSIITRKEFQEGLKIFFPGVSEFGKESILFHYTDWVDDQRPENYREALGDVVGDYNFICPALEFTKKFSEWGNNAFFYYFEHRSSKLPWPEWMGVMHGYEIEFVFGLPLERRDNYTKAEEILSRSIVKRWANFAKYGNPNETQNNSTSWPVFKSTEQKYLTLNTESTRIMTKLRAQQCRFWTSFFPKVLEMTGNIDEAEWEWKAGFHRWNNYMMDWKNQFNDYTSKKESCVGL
Series [11] addresses T3, Cholinesterase. Nature of the series: Inhibition of human serum BChE using butyrylthiocholine iodide as substrate by Ellman's method.

A value given as a limit tells only on which side of the number the result lay.

T1 sequence (O42275 whole entry): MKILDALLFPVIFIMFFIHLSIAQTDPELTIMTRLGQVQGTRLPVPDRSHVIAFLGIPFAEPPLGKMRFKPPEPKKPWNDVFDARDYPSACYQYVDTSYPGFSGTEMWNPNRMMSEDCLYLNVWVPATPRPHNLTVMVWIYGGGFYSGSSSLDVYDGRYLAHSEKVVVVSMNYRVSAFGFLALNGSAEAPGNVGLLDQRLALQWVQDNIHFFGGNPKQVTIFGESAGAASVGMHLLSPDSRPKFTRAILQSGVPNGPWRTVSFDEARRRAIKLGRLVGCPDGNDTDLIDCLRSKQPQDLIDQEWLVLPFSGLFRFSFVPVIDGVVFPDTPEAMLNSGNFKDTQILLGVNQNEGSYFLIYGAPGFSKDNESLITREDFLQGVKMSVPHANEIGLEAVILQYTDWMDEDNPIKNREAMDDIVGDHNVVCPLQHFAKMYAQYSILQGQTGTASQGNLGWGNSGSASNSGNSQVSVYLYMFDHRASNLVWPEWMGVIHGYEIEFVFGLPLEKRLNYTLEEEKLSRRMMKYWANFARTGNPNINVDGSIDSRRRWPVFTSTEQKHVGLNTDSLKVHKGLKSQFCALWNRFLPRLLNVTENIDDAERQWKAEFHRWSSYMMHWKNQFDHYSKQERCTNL

Broadly, the Ki is the equilibrium dissociation constant of an inhibitor or competing ligand from its target. Turning to `CC(=O)[C@@H]1CC[C@]2(C(=O)OCc3ccccc3)CC[C@]3(C)[C@H](CC[C@@H]4[C@@]5(C)CC[C@H](N)C(C)(C)[C@@H]5CC[C@]43C)[C@@H]12`, the Ki was 13.4 µM at Acetylcholinesterase [1], 76.6 µM on Acetylcholinesterase [2], 0.56 µM at Cholinesterase [3] and 3.5 µM on Cholinesterase [4]. In addition, in series [5], the Ratio Ki amounted to 24.
As to `COC(=O)[C@]12CC[C@@H]([C@H](C)N)[C@@H]1[C@H]1CC[C@@H]3[C@@]4(C)CC[C@H](OC(C)=O)C(C)(C)[C@@H]4CC[C@@]3(C)[C@]1(C)CC2`, the Ki on Acetylcholinesterase [1] was above 40 µM; on Acetylcholinesterase [2], above 80 µM; on Cholinesterase [3], 0.23 µM; at Cholinesterase [4], 3.89 µM. Further, the Ratio Ki in series [5] was above 173.
Consider `CC(=O)O[C@H]1CC[C@]2(C)[C@H]3CC[C@@H]4[C@H]5[C@H](C(C)=O)CC[C@]5(C(N)=O)CC[C@@]4(C)[C@]3(C)CC[C@H]2C1(C)C`, for which the Ki was 8.16 µM on Acetylcholinesterase [1], 10.9 µM on Acetylcholinesterase [2] and above 10 µM at Cholinesterase [3]. Further, the Ratio Ki in series [6] is above 1.2.
Take `CC(=O)O[C@H]1CC[C@]2(C)[C@H]3CC[C@@H]4[C@H]5[C@H](/C(C)=N/O)CC[C@]5(C(=O)O)CC[C@@]4(C)[C@]3(C)CC[C@H]2C1(C)C`: the Stability entry in series [7] and in [8] was “Stable” throughout.
For the compound `CCC(=O)O/N=C(\C)[C@@H]1CC[C@]2(C(=O)OC)CC[C@]3(C)[C@H](CC[C@@H]4[C@@]5(C)CC[C@H](OC(C)=O)C(C)(C)[C@@H]5CC[C@]43C)[C@@H]12`, the Ki on Acetylcholinesterase [1] and on Cholinesterase [3] was above 30 µM each time.
`COC(=O)[C@]12CC[C@@H](C(C)=O)[C@@H]1[C@H]1CC[C@@H]3[C@@]4(C)CC[C@H](O)C(C)(C)[C@@H]4CC[C@@]3(C)[C@]1(C)CC2`: the Ki was 0.76 µM at Acetylcholinesterase [1] and above 4 µM at Cholinesterase [3]. The Ratio Ki in series [6] was above 5.
For the compound `CC(=O)O[C@H]1CC[C@]2(C)[C@H]3CC[C@@H]4[C@H]5[C@H](C(C)=O)CC[C@]5(C(=O)OCc5ccccc5)CC[C@@]4(C)[C@]3(C)CC[C@H]2C1(C)C`, the Ki at Acetylcholinesterase [1] is 0.09 µM; at Acetylcholinesterase [2], 0.21 µM; at Cholinesterase [3] it was 33.1 µM; at Cholinesterase [4], above 400 µM. Moreover, in series [6], the Ratio Ki was 368.
By IC50 is commonly meant the point on the concentration scale where inhibition reaches its midpoint. As for `CC(C)c1ccc(NC(=O)Oc2ccc3c(c2)[C@]2(C)CCN[C@@H]2N3)cc1`, the IC50 against Acetylcholinesterase [9] is 0.11 µM; against Cholinesterase [10], 0.001 µM. This compound returned a Ki on Cholinesterase [11] of 0.000131 µM.
Take `CC(=O)[C@@H]1CC[C@]2(C(=O)OCc3ccccc3)CC[C@]3(C)[C@H](CC[C@@H]4[C@@]5(C)CCC(=O)C(C)(C)[C@@H]5CC[C@]43C)[C@@H]12`: the values for the Ki on Acetylcholinesterase [1], at Acetylcholinesterase [2] and on Cholinesterase [3] were 2.63 µM, 4.59 µM and above 10 µM, respectively. For the same compound, in series [6], the Ratio Ki is above 3.8.
In the case of `COC(=O)[C@]12CC[C@@H]([C@H](C)NC(C)=O)[C@@H]1[C@H]1CC[C@@H]3[C@@]4(C)CC[C@H](OC(C)=O)C(C)(C)[C@@H]4CC[C@@]3(C)[C@]1(C)CC2`, the Ki at Acetylcholinesterase [1] was 11.8 µM; at Acetylcholinesterase [2], 45.6 µM; on Cholinesterase [3], above 40 µM. The Ratio Ki in series [6] is above 3.4.
For the compound `CC(=O)[C@@H]1CC[C@]2(C(=O)NCCN)CC[C@]3(C)[C@H](CC[C@@H]4[C@@]5(C)CC[C@H](O)C(C)(C)[C@@H]5CC[C@]43C)[C@@H]12`, the Ki on Acetylcholinesterase [1] is 7.18 µM; on Acetylcholinesterase [2], 9.71 µM; on Cholinesterase [3], 8.37 µM; on Cholinesterase [4], above 110 µM. In addition, in [6], the Ratio Ki was found to be 1.2.
For the compound `CC(=O)[C@@H]1CC[C@]2(C(=O)OCc3ccccc3)CC[C@]3(C)[C@H](CC[C@@H]4[C@@]5(C)CC[C@@H](N)C(C)(C)[C@@H]5CC[C@]43C)[C@@H]12`, the Ki at Acetylcholinesterase [1] was 20.3 µM; at Acetylcholinesterase [2], above 90 µM; at Cholinesterase [3], 1.8 µM; on Cholinesterase [4], 5.98 µM. Besides, in series [5], the Ratio Ki came out at 11.
Turning to `CC(=O)O[C@H]1CC[C@]2(C)[C@H]3CC[C@@H]4[C@H]5[C@H](C(C)=O)CC[C@]5(C(=O)O)CC[C@@]4(C)[C@]3(C)CC[C@H]2C1(C)C`, the results for the Ki on Acetylcholinesterase [1] and on Cholinesterase [3] were 9 µM and above 10 µM, respectively. Also, the Ratio Ki in [6] is above 1.1.
Regarding `COC(=O)[C@]12CC[C@@H]([C@@H](C)NC(C)=O)[C@@H]1[C@H]1CC[C@@H]3[C@@]4(C)CC[C@H](OC(C)=O)C(C)(C)[C@@H]4CC[C@@]3(C)[C@]1(C)CC2`, the inhibition constant (Ki) on Acetylcholinesterase [1] and on Cholinesterase [3] was above 4 µM each time.
With `CC(=O)[C@@H]1CC[C@]2(C(=O)OCc3ccccc3)CC[C@]3(C)[C@H](CC[C@@H]4[C@@]5(C)CC[C@H](O)C(C)(C)[C@@H]5CC[C@]43C)[C@@H]12`, the Ki on Acetylcholinesterase [1] is 0.59 µM; on Acetylcholinesterase [2], 4.06 µM; on Cholinesterase [3] it was above 10 µM. Further, in [6], the Ratio Ki is above 17.
As to `CC(=O)O[C@H]1CC[C@]2(C)[C@H]3CC[C@@H]4[C@H]5[C@H](C(C)=O)CC[C@]5(C(=O)NCCN)CC[C@@]4(C)[C@]3(C)CC[C@H]2C1(C)C`, the Ki on Acetylcholinesterase [1] came to 3.06 µM; on Acetylcholinesterase [2], 6.83 µM; at Cholinesterase [3] it was 11.9 µM; on Cholinesterase [4], 17.1 µM. Moreover, in [6], the Ratio Ki came to 3.9.
Regarding `COC(=O)[C@]12CC[C@@H](NC(C)=O)[C@@H]1[C@H]1CC[C@@H]3[C@@]4(C)CC[C@H](OC(C)=O)C(C)(C)[C@@H]4CC[C@@]3(C)[C@]1(C)CC2`, the Ki at Acetylcholinesterase [1] was 14.1 µM; at Cholinesterase [3], above 20 µM. For the same compound, in series [6], the Ratio Ki is above 1.4.
Turning to `CC(=O)OC[C@]12CC[C@@H]([C@@H](C)N)[C@@H]1[C@H]1CC[C@@H]3[C@@]4(C)CC[C@H](OC(C)=O)C(C)(C)[C@@H]4CC[C@@]3(C)[C@]1(C)CC2`, the Ki on Acetylcholinesterase [1] was found to be 4.5 µM; on Cholinesterase [3], 0.06 µM; on Cholinesterase [4], 0.37 µM. The Ratio Ki in [5] was 75.
Take `CC(=O)O[C@H]1CC[C@]2(C)[C@H]3CC[C@@H]4[C@H]5[C@H]([C@@H](C)N)CC[C@]5(C(=O)O)CC[C@@]4(C)[C@]3(C)CC[C@H]2C1(C)C`: the Ki worked out at 20.9 µM at Acetylcholinesterase [1], 0.1 µM on Cholinesterase [3] and 2.75 µM at Cholinesterase [4]. In series [5], the Ratio Ki was 209.
On to `COC(=O)[C@]12CC[C@@H](/C(C)=N/OC(C)=O)[C@@H]1[C@H]1CC[C@@H]3[C@@]4(C)CC[C@H](OC(C)=O)C(C)(C)[C@@H]4CC[C@@]3(C)[C@]1(C)CC2`, for which the Ki at Acetylcholinesterase [1] and at Cholinesterase [3] was above 15 µM in each case.
For `CC(=O)O[C@H]1CC[C@]2(C)[C@H]3CC[C@@H]4[C@H]5[C@H]([C@@H](C)N)CC[C@]5(C(=O)OCc5ccccc5)CC[C@@]4(C)[C@]3(C)CC[C@H]2C1(C)C`, the Ki turned out to be 8.51 µM on Acetylcholinesterase [1], 17 µM at Acetylcholinesterase [2], 0.01 µM on Cholinesterase [3] and 0.4 µM on Cholinesterase [4]. The Ratio Ki in [5] amounted to 851.
Take `COC(=O)[C@]12CC[C@@H]([C@@H](C)N)[C@@H]1[C@H]1CC[C@@H]3[C@@]4(C)CC[C@H](OC(C)=O)C(C)(C)[C@@H]4CC[C@@]3(C)[C@]1(C)CC2`: the Ki at Acetylcholinesterase [1] was above 4 µM; at Cholinesterase [3], 0.09 µM; at Cholinesterase [4], 0.05 µM. Further, in [5], the Ratio Ki was above 44.
Take `C[C@@H](N)[C@@H]1CC[C@]2(C(=O)OCc3ccccc3)CC[C@]3(C)[C@H](CC[C@@H]4[C@@]5(C)CC[C@H](O)C(C)(C)[C@@H]5CC[C@]43C)[C@@H]12`: the inhibitory constant (Ki) on Acetylcholinesterase [1] stood at 11 µM; at Acetylcholinesterase [2] it was 47.8 µM; on Cholinesterase [3], 0.07 µM; at Cholinesterase [4] it was 0.19 µM. For the same compound, the Ratio Ki in [5] was determined as 157. Besides, the Stability result in [7] and in [8] was “Stable” in each case.
Turning to `CC(=O)O[C@H]1CC[C@]2(C)[C@H]3CC[C@@H]4[C@H]5[C@H]([C@H](C)N)CC[C@]5(C(=O)OCc5ccccc5)CC[C@@]4(C)[C@]3(C)CC[C@H]2C1(C)C`, the Ki at Acetylcholinesterase [1] worked out at 10.7 µM; on Acetylcholinesterase [2], 34.2 µM; at Cholinesterase [3] it was 0.38 µM; at Cholinesterase [4], 6.78 µM. In addition, the Ratio Ki in series [5] was found to be 28.
On the same counts, the results for `C[C@@H](N)[C@@H]1CC[C@]2(CO)CC[C@]3(C)[C@H](CC[C@@H]4[C@@]5(C)CC[C@H](O)C(C)(C)[C@@H]5CC[C@]43C)[C@@H]12` are 53.1 µM, 104 µM, 0.14 µM, 1.89 µM and 378.
Turning to `CC(=O)[C@@H]1CC[C@]2(C(=O)O)CC[C@]3(C)[C@H](CC[C@@H]4[C@@]5(C)CC[C@H](O)C(C)(C)[C@@H]5CC[C@]43C)[C@@H]12` [PLATANIC ACID], the Ki at Acetylcholinesterase [1] is 31.6 µM; at Acetylcholinesterase [2], 36.9 µM; on Cholinesterase [3], above 50 µM. In addition, the Ratio Ki in series [6] was above 1.6.
`CC(=O)[C@@H]1CC[C@]2(N)CC[C@]3(C)[C@H](CC[C@@H]4[C@@]5(C)CC[C@H](O)C(C)(C)[C@@H]5CC[C@]43C)[C@@H]12`: the Ki on Acetylcholinesterase [1] was 20.9 µM; at Acetylcholinesterase [2] it was above 120 µM; at Cholinesterase [3] it was 6.39 µM; on Cholinesterase [4], 38.9 µM. Besides, the Ratio Ki in series [5] was 3.3.

These data come from ChEMBL document CHEMBL4002583, “Amino derivatives of platanic acid act as selective and potent inhibitors of butyrylcholinesterase” (Eur J Med Chem, 2017).
